Laboratory results from PMC8199067, “Urolithin and Reduced Urolithin Derivatives as Potent Inhibitors of Tyrosinase and Melanogenesis: Importance of the 4-Substituted Resorcinol Moiety” (International Journal of Molecular Sciences, 2021).

Legend:
mushroom tyrosinase = mushroom tyrosinase (Agaricus bisporus, UniProt C7FF04); experiment: Mushroom tyrosinase inhibitory assay (L-tyrosine substrate); type: biochemical; settings: 50 μM, L-tyrosine as substrate, mean ± SEM, NI means no inhibition
Protocol: The experiment was repeated three times. Mushroom tyrosinase inhibitions % were calculated using:% Inhibition = [1 − (A/B)] × 100(1) where A is the absorbance of the test compound and B is the absorbance of the blank.
Log-linear curves were plotted, and their equations were determined.

B16F10 melanoma cells [1] = system: B16F10 melanoma cells; design: method as in PMID 28726389; settings: B16F10 melanoma cells ref 70; cited from earlier work
B16F10 melanoma cells [2] = system: B16F10 melanoma cells; design: method as in Su and co-workers; settings: at the same concentration (20 µM) ref Su and co-workers; cited from earlier work

Sequence of mushroom tyrosinase (C7FF04 1-392 limits assumed): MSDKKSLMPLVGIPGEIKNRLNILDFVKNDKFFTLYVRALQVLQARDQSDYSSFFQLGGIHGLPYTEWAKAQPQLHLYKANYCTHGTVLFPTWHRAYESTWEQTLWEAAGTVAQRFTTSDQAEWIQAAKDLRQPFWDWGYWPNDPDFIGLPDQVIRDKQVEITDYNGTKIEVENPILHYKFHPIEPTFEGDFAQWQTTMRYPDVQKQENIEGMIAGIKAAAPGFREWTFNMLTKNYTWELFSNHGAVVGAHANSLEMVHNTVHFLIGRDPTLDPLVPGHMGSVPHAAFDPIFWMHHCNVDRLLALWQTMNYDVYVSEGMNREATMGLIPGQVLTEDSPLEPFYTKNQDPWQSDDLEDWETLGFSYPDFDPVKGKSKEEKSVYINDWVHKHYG

inhibition at 50 µM (mushroom tyrosinase) [%] | Tyrosinase Inhibition (%) (mushroom tyrosinase; listed as urolithin B) | Tyrosinase Inhibition (%) (mushroom tyrosinase; listed as urolitin B) | Tyrosinase Inhibition (%) (mushroom tyrosinase; listed as urolithin A) | Compound | Antimelanogenic effect (B16F10 melanoma cells [1]) | Cytotoxicity compared with 1c and 1h (B16F10 melanoma cells [2])
< 0 | did not inhibit tyrosinase | did not show inhibitory activity |  | O=c1oc2cc(O)ccc2c2ccccc12 [Compound 1a, 3-Hydroxy-6H-benzo[c]chromen-6-one] | antimelanogenic effects through tyrosinase inhibition | higher cytotoxicity
< 0 |  |  | did not show inhibitory activity | O=c1oc2cc(O)ccc2c2ccc(O)cc12 [Compound 1e, 3,8-Dihydroxy-6H-benzo[c]chromen-6-one] | antimelanogenic effects through tyrosinase inhibition | higher cytotoxicity
